Results reported in ChEMBL document CHEMBL4354828, “Discovery of Taniborbactam (VNRX-5133): A Broad-Spectrum Serine- and Metallo-β-lactamase Inhibitor for Carbapenem-Resistant Bacterial Infections” (J Med Chem, 2020).
In brackets after ≈: the same amount, converted by molar mass.

Tests used:
[1] = target: Interstitial collagenase (Homo sapiens, UniProt P03956); assay: Inhibition of human MMP1 at 100 uM
[2] = test system: Escherichia coli; assay: Inhibition of TEM/CTX-M/SHV/Cephalosporinase in Escherichia coli EC1552 assessed as cefepime antibacterial activity at 4 ug/ml after 16 to 20 hrs by CLSI-based microbroth dilution method (reference value: […] ug/ml)
[3] = target: 72 kDa type IV collagenase (Homo sapiens, UniProt P08253); assay: Inhibition of human MMP2 at 100 uM
[4] = test system: Klebsiella pneumoniae; assay: Antibacterial activity against Klebsiella pneumoniae UNT-065-1 expressing CTX-M14 infected in CD1 mouse assessed as log reduction in viable bacterial count in lung at 16 mg/kg, sc administered as single dose co-treated with 32 mg/kg cefepime and measured after 24 hrs post infection (reference value: 9.27 +/- 0.21); type: functional
[5] = target: Matrix metalloproteinase-9 (Homo sapiens, UniProt P14780); assay: Inhibition of human MMP9 at 100 uM
[6] = target: Cytochrome P450 3A4 (Homo sapiens, UniProt P08684); assay: Inhibition of human CYP3A4 at 100 uM; type: ADME
[7] = Inhibition of bacterial KPC-2 using imipenem as substrate preincubated for 15 mins followed by susbtrate addition and measured after 10 mins by spectrophotometric method; parameters: species or system Bacteria
[8] = test system: Klebsiella pneumoniae; assay: Effect on growth of wild type Klebsiella pneumoniae CI 09 after 16 to 20 hrs by CLSI-based microbroth dilution method; type: organism-based
[9] = test system: Pseudomonas aeruginosa; assay: Effect on growth of Pseudomonas aeruginosa Ps296 AmpC/VIM-2/TEM-1 after 16 to 20 hrs by CLSI-based microbroth dilution method; type: organism-based; conditions: in vivo
[10] = test system: Klebsiella pneumoniae; assay: Inhibition of TEM/CTX-M/SHV in Klebsiella pneumoniae 9032 assessed as cefepime antibacterial activity at 4 ug/ml after 16 to 20 hrs by CLSI-based microbroth dilution method (reference value: […] ug/ml)
[11] = test system: Escherichia coli; assay: Antibacterial activity against Escherichia coli UNT057-1 expressing CTX-M-15 infected in C3H/Hej mouse assessed as log reduction in viable bacterial counts in kidney at 8 mg/kg, sc bid co-treated with 16 mg/kg of cefepime and measured after 7 days (reference value: 7.25 +/- 0.16); type: functional
[12] = Cytotoxicity against mouse 3T3 cells assessed as growth inhibition at 256 ug/ml relative to control; type: cell-based; conditions: NIH3T3 cells, read-out: Activity
[13] = target: Beta-lactamase VIM-2 (Pseudomonas aeruginosa) (UniProt Q9K2N0); assay: Inhibition of VIM-2 in Pseudomonas aeruginosa assessed as meropenem antibacterial activity at 4 ug/ml after 16 to 20 hrs by CLSI-based microbroth dilution method (Rvb >= […] ug/ml)
[14] = target: Voltage-gated inwardly rectifying potassium channel KCNH2 (Homo sapiens, UniProt Q12809); assay: Inhibition of human ERG at 100 uM
[15] = test system: Enterobacter cloacae; assay: Inhibition of TEM/CTX-M/SHV/Cephalosporinase in Enterobacter cloacae CH23 assessed as cefepime antibacterial activity at 4 ug/ml after 16 to 20 hrs by CLSI-based microbroth dilution method (Rvb > […] ug/ml)
[16] = target: Chymotrypsin (Homo sapiens, UniProt Q99895+P17538+P40313+Q6GPI1); assay: Inhibition of human chymotrypsin at 100 uM; type: protein assay
[17] = test system: Pseudomonas aeruginosa; assay: Effect on growth of wild type Pseudomonas aeruginosa 27853 after 16 to 20 hrs by CLSI-based microbroth dilution method; type: organism-based
[18] = test system: Escherichia coli; assay: Effect on growth of Escherichia coli J53 expressing SHV5/ AmpC/TEM-1 after 16 to 20 hrs by CLSI-based microbroth dilution method; type: organism-based; conditions: in vivo
[19] = target: Coagulation factor X (Homo sapiens, UniProt P00742); assay: Inhibition of human factor Xa at 100 uM
Coagulation factor X, sequence (P00742 41-179 limits assumed): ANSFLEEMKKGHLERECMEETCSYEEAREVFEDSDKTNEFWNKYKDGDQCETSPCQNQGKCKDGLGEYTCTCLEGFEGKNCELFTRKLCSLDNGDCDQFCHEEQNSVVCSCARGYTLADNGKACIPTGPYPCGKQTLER
Coagulation factor X, sequence (P00742 235-488 limits assumed): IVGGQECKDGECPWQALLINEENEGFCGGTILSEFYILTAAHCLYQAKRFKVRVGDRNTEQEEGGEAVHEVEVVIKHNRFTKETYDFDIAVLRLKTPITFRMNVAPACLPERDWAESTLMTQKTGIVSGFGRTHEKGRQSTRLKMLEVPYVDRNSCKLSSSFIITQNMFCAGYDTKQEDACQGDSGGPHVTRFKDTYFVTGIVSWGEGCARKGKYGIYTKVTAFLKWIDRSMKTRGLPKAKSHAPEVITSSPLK

72 kDa type IV collagenase, sequence (P08253 whole entry): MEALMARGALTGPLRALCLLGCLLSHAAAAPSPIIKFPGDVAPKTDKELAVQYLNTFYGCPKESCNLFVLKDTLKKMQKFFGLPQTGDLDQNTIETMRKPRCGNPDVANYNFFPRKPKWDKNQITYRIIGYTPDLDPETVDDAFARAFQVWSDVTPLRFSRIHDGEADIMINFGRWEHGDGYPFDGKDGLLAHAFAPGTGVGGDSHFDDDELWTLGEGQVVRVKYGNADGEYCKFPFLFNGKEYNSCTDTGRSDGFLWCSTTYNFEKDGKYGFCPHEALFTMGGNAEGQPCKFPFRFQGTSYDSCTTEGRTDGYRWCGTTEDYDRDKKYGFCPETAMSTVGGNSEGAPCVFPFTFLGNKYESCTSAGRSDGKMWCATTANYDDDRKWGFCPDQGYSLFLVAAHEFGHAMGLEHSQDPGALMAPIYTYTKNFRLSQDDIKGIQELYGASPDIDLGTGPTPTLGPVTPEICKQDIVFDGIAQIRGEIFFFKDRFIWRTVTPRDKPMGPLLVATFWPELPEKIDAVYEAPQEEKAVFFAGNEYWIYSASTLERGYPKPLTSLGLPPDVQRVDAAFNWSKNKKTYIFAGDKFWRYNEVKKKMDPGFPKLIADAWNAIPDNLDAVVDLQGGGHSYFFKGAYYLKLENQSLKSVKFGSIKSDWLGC
Voltage-gated inwardly rectifying potassium channel KCNH2, sequence (Q12809 whole entry): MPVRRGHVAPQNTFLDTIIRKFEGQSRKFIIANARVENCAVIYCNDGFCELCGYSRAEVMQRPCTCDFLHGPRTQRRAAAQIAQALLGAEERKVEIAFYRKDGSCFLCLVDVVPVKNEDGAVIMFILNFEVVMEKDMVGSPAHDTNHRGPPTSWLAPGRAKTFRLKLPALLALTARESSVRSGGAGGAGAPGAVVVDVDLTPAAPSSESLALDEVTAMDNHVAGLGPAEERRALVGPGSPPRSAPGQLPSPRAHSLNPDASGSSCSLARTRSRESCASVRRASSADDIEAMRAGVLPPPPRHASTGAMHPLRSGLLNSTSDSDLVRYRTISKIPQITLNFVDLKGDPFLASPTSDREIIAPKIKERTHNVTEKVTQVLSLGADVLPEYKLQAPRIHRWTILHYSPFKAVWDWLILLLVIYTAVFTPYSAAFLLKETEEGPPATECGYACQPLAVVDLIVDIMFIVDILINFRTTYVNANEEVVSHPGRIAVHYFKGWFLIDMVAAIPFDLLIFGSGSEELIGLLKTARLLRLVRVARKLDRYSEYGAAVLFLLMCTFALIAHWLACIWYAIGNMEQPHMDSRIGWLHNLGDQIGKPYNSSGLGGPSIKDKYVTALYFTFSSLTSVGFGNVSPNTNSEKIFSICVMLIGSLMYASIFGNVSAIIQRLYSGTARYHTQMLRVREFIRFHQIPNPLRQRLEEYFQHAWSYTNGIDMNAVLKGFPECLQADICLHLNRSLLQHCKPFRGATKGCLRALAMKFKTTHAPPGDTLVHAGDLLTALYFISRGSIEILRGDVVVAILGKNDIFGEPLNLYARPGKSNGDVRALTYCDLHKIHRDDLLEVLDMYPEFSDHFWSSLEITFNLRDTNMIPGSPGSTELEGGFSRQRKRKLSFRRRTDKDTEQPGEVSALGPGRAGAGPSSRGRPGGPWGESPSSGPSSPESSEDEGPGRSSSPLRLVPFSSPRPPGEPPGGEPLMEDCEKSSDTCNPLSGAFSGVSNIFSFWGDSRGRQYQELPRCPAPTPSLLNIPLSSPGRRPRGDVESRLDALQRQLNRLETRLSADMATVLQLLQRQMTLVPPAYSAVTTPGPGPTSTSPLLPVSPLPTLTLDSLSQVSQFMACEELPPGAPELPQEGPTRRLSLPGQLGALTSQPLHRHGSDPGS
Interstitial collagenase, sequence (P03956 whole entry): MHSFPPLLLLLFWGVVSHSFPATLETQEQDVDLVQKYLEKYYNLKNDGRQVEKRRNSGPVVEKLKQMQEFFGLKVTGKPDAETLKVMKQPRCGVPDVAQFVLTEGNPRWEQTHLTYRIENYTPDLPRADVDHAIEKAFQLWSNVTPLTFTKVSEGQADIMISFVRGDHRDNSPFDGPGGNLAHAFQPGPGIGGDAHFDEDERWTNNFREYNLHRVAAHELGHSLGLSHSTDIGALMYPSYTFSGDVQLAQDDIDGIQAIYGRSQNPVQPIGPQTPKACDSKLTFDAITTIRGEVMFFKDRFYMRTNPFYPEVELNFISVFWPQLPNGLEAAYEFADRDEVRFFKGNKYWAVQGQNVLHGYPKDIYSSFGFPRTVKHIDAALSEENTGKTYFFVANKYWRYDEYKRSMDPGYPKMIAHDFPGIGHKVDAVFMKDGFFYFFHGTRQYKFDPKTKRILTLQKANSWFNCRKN
Matrix metalloproteinase-9, sequence (P14780 whole entry): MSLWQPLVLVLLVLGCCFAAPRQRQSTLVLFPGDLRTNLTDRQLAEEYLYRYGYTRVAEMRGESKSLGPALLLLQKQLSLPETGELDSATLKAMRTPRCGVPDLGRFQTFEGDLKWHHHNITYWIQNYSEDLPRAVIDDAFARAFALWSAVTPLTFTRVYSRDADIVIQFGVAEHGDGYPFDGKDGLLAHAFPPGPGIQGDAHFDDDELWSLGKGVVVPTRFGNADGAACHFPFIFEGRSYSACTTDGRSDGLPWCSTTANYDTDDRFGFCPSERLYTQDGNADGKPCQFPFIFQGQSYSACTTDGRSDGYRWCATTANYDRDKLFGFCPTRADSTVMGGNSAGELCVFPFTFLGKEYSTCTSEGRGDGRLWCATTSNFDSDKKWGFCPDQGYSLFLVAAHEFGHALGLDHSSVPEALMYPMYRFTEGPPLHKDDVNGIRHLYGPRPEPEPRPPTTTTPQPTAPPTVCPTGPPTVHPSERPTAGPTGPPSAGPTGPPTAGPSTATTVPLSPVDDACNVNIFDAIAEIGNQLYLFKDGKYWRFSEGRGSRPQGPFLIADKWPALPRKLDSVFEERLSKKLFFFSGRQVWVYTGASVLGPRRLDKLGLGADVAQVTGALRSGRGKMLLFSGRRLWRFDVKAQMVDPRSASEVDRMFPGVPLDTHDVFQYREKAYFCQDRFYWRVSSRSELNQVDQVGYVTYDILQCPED
Cytochrome P450 3A4, sequence (P08684 whole entry): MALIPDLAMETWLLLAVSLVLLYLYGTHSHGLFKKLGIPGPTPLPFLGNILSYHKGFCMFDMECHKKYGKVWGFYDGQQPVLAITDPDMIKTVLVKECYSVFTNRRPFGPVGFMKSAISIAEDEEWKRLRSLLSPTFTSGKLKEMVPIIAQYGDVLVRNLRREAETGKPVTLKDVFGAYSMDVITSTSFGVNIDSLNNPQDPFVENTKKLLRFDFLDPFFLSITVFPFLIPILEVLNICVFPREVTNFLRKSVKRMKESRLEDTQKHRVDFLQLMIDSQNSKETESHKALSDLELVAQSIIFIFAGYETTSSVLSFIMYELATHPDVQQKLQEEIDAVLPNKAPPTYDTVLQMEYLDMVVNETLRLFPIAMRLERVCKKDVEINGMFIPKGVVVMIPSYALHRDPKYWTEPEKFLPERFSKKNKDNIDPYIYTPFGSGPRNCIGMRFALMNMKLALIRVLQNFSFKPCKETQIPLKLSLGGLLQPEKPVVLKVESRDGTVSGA

Compound: NCCN[C@H]1CC[C@H](CC(=O)N[C@H]2Cc3cccc(C(=O)O)c3OB2O)CC1
- inhibition (INH) [1]: Not Active
- MIC [2]: 0.5 µg/mL (≈ 1.28 µM)
- inhibition (INH) [3]: Not Active
- Activity [4]: 4.51 log10CFU
- inhibition (INH) [5]: Not Active
- inhibition (INH) [6]: Not Active
- IC50 [7]: 0.03 µM
- MIC [8]: > 128 µg/mL
- MIC [9]: > 128 µg/mL
- MIC [10]: < 0.125 µg/mL
- Activity [11]: 4.87 log10CFU
- inhibition at 256 ug/ml [12]: < 20%
- MIC [13]: 0.06 µg/mL (≈ 0.154 µM)
- inhibition (INH) [14]: Not Active
- MIC [15]: 0.5 µg/mL (≈ 1.28 µM)
- inhibition (INH) [16]: Not Active
- MIC [17]: > 128 µg/mL
- MIC [18]: > 128 µg/mL
- inhibition (INH) [19]: Not Active
